{"source": "paper PMC4255919", "about": "(Nature, 2014)", "key": {"[1]": {"molecular_target": "GluCl (C. elegans GluClα, GluClcryst) (Caenorhabditis elegans, UniProt G5EBR3, DEL364-421/INS363AGT)", "experiment": "radioligand competition with [3H]-ivermectin", "assay_type": "binding"}, "[2]": {"molecular_target": "T1, GluCl (C. elegans GluClα, GluClcryst) (Caenorhabditis elegans, UniProt G5EBR3, INS363AGT/DEL364-421)", "T1 sequence (G5EBR3 with tags, fused parts or gaps INS363AGT/DEL364-421)": "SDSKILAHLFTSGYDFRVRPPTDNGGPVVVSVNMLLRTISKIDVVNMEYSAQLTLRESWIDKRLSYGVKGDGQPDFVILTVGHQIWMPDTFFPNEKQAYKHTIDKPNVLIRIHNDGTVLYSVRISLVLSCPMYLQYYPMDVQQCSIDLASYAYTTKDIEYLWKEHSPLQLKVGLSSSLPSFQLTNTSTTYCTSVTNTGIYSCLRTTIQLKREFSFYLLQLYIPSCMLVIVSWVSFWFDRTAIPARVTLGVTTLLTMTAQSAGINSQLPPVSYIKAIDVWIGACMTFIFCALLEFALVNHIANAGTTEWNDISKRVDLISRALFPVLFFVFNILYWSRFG", "experiment": "X-ray crystal structure at […] Å", "assay_type": "binding"}}, "data": [{"smiles": "CCCCCCCC/C=C\\CCCCCCCC(=O)O[C@H](COC(=O)CCCCCCCCCCCCCCC)COP(=O)(O)OC[C@H](N)C(=O)O", "note": "[POPS, 1-palmitoyl-2-oleoyl-sn-glycero-3-phosphoserine]", "values": [{"measurement": "Ki", "setting": "[1]", "result": 167, "unit": "µM"}]}, {"smiles": "CCCCCCCC/C=C\\CCCCCCCC(=O)O[C@@H](COC(=O)CCCCCCCCCCCCCCC)COP(=O)([O-])OCC[N+](C)(C)C", "note": "[POPC, 1-palmitoyl-2-oleoyl-sn-glycero-3-phosphocholine]", "values": [{"measurement": "X-ray crystal structure at 3.2 Å", "setting": "[2]", "result": "We modeled these densities as POPC molecules with the phosphocholine head group pointing towards the center of the pore"}]}]}
